Source: patent US12263172B2, “Toll-like receptor agonists for use in the treatment of hepatitis b” (priority 2019, dated 2025)
Several values for one entry are separate records, joined by “and”; a condition that tells them apart may be missing. Identical values can stand only once.

Experiment: Phase 1 single-ascending dose (Part 1): safety and tolerability in healthy adults
Assay type: in vivo, human
Description: This ongoing trial is a Phase 1 randomized, double-blind, placebo-controlled study in male and female healthy adult volunteers aged 18-55 years. All volunteers provided written, informed consent.
All volunteers were followed up for 4 weeks and safety and tolerability were continuously assessed throughout the study. All adverse events (AEs) were recorded from the time of consent to the completion visit and were graded using the DAIDS toxicity grading scale. Volunteers also underwent physical examinations, electrocardiograms, vital sign checks and clinical laboratory parameters (chemistry, haematology, urinalysis).

CCCCOc1nc(N)c2[nH]cc(Cc3ccc(CN4CCCC4)cc3)c2n1 [Compound 4]
4 (50) n (%): Headache Grade 1 (treatment-emergent AE) (single dose 1.25 mg fasted)
1 (16.7%) n (%): lab toxicity: Creatine kinase (U/L), upwards, Grade 2 (single dose 0.6 mg fasted) | lab toxicity: Glucose (mmol/L), upwards, Grade 1 (single dose 0.6 mg fasted) | lab toxicity: Glucose (mmol/L), upwards, Grade 2 (single dose 0.6 mg fasted) | lab toxicity: LDL cholesterol (mmol/L, calculated), upwards, Grade 2 (single dose 0.6 mg fasted) | lab toxicity: Sodium (mmol/L), upwards, Grade 2 (single dose 0.6 mg fasted) | subjects with at least one AE possibly related to any study drug (single dose 0.6 mg fasted) | subjects with at least one AE possibly, probably or very likely related to any study drug (single dose 0.6 mg fasted) | treatment-related AE: Any AE (single dose 0.6 mg fasted) | treatment-related AE: Respiratory, thoracic and mediastinal disorders (single dose 0.6 mg fasted) | vital signs: Standing SBP (mmHg) Grade 1 (single dose 0.6 mg fasted) | vital signs: Supine DBP (mmHg) Low (single dose 0.6 mg fasted) | vital signs: Supine SBP (mmHg) Grade 1 (single dose 0.6 mg fasted) | vital signs: Supine pulse (bpm) Low (single dose 0.6 mg fasted)
1 (12.5%) n (%): ECG actual value: QRS (ms) High (single dose 1.25 mg fasted) | ECG actual value: QTcB (ms) ]450; 480] (single dose 1.25 mg fasted) | ECG actual value: QTcF (ms) ]450; 480] (single dose 1.25 mg fasted) | lab toxicity: Amylase (U/L), upwards, Grade 1 (single dose 1.25 mg fasted) | lab toxicity: Cholesterol (mmol/L), upwards, Grade 1 (single dose 1.25 mg fasted) | lab toxicity: Glucose (mmol/L), upwards, Grade 2 (single dose 1.25 mg fasted) | lab toxicity: LDL cholesterol (mmol/L, calculated), upwards, Grade 3 (single dose 1.25 mg fasted) | lab toxicity: Lymphocytes (giga/L), downwards, Grade 2 (single dose 1.25 mg fasted) | lab toxicity: Platelets (giga/L), downwards, Grade 1 (single dose 1.25 mg fasted) | lab toxicity: Sodium (mmol/L), upwards, Grade 2 (single dose 1.25 mg fasted) | subjects with Grade 2 treatment-related AEs (pyrexia) (single dose 1.25 mg fasted) | subjects with at least one AE for which any study drug or study was permanently stopped (single dose 1.25 mg fasted)
2 (25.0%) n (%): lab toxicity: Neutrophils, segmented (giga/L), downwards, Grade 1 (single dose 1.25 mg fasted) | lab toxicity: Sodium (mmol/L), upwards, Grade 1 (single dose 1.25 mg fasted)
2 (25) n (%): Oropharyngeal pain Grade 1 (treatment-emergent AE) (single dose 1.25 mg fasted) | Pyrexia Grade 1 (treatment-emergent AE) (single dose 1.25 mg fasted) | URTI Grade 1 (treatment-emergent AE) (single dose 1.25 mg fasted)
4 (50.0%) n (%): subjects with headache (AE) (single dose 1.25 mg) | lab toxicity: Triglycerides (mmol/L), upwards, Grade 2 (single dose 1.25 mg fasted)
3 (37.5%) n (%) and 3 (37.5%)^a n (%): ECG change from reference: QTcB (ms) [30; 60] (single dose 1.25 mg fasted)
3 (50.0%) n (%): subjects with at least one AE (single dose 0.6 mg fasted) | subjects with at least one grade 1 AE (single dose 0.6 mg fasted) | vital signs: Respiratory rate (brpm) Grade 1 (single dose 0.6 mg fasted)
3 (38) n (%): Myalgia Grade 1 (treatment-emergent AE) (single dose 1.25 mg fasted)
1 (17) n (%): ↑ Creatine kinase Grade 2 (laboratory abnormality) (single dose 0.6 mg fasted) | ↑ Glucose Grade 2 (laboratory abnormality) (single dose 0.6 mg fasted) | ↑ LDL cholesterol Grade 2 (laboratory abnormality) (single dose 0.6 mg fasted) | ↑ Sodium Grade 2 (laboratory abnormality) (single dose 0.6 mg fasted)
8 (100%) n (%): subjects with at least one AE (single dose 1.25 mg fasted)
1 (12.5%) n (%) and 1 (12.5%)^a n (%): ECG change from reference: QTcF (ms) [30; 60] (single dose 1.25 mg fasted)
1 (13) n (%): Back pain Grade 1 (treatment-emergent AE) (single dose 1.25 mg fasted) | Pyrexia Grade 2 (treatment-emergent AE) (single dose 1.25 mg fasted)
4 (66.7%) n (%): lab toxicity: Triglycerides (mmol/L), upwards, Grade 1 (single dose 0.6 mg fasted) | vital signs: SaO2 (%) 95% to <98% (single dose 0.6 mg fasted)
5 (62.5%) n (%): subjects with at least one AE possibly related to any study drug (single dose 1.25 mg fasted)
8 (100) n (%): Any AE (treatment-emergent) (single dose 1.25 mg fasted)
3 (37.5%) n (%): subjects with myalgia (AE) (single dose 1.25 mg) | subjects with pyrexia (AE) (single dose 1.25 mg) | lab toxicity: Glucose (mmol/L), upwards, Grade 1 (single dose 1.25 mg fasted) | lab toxicity: Triglycerides (mmol/L), upwards, Grade 1 (single dose 1.25 mg fasted) | subjects with at least one AE probably related to any study drug (single dose 1.25 mg fasted)
6 (75.0%) n (%): subjects with at least one AE possibly, probably or very likely related to any study drug (single dose 1.25 mg fasted)
2 (33.3%) n (%): lab toxicity: LDL cholesterol (mmol/L, calculated), upwards, Grade 1 (single dose 0.6 mg fasted) | lab toxicity: Sodium (mmol/L), upwards, Grade 1 (single dose 0.6 mg fasted)
0 n (%): lab toxicity: Cholesterol (mmol/L), upwards, Grade 2 (single dose 0.6 mg fasted) | lab toxicity: Creatine kinase (U/L), upwards, Grade 1 (single dose 0.6 mg fasted) | lab toxicity: Creatine kinase (U/L), upwards, Grade 4 (single dose 0.6 mg fasted) | lab toxicity: LDL cholesterol (mmol/L, calculated), upwards, Grade 3 (single dose 0.6 mg fasted) | lab toxicity: Lymphocytes (giga/L), downwards, Grade 2 (single dose 0.6 mg fasted) | lab toxicity: Lymphocytes (giga/L), downwards, Grade 4 (single dose 0.6 mg fasted) | lab toxicity: Neutrophils, segmented (giga/L), downwards, Grade 1 (single dose 0.6 mg fasted) | lab toxicity: Neutrophils, segmented (giga/L), downwards, Grade 2 (single dose 0.6 mg fasted) | lab toxicity: Platelets (giga/L), downwards, Grade 1 (single dose 0.6 mg fasted) | lab toxicity: Triglycerides (mmol/L), upwards, Grade 2 (single dose 0.6 mg fasted) | lab toxicity: Triglycerides (mmol/L), upwards, Grade 3 (single dose 0.6 mg fasted) | lab toxicity: Urate (μmol/L), upwards, Grade 1 (single dose 0.6 mg fasted) | subjects with at least one AE for which any study drug or study was permanently stopped (single dose 0.6 mg fasted) | subjects with at least one AE for which any study drug or study was temporarily stopped (single dose 0.6 mg fasted) | subjects with at least one AE probably related to any study drug (single dose 0.6 mg fasted) | subjects with at least one AE very likely related to any study drug (single dose 0.6 mg fasted) | subjects with at least one SAE (single dose 0.6 mg fasted) | subjects with at least one fatal AE (single dose 0.6 mg fasted) | subjects with at least one grade 2 AE (single dose 0.6 mg fasted) | subjects with at least one grade 3 or 4 AE (single dose 0.6 mg fasted) | treatment-related AE: Chills (single dose 0.6 mg fasted) | treatment-related AE: Dizziness (single dose 0.6 mg fasted) | treatment-related AE: General disorders and administration site conditions (single dose 0.6 mg fasted) | treatment-related AE: Headache (single dose 0.6 mg fasted) | treatment-related AE: Hypertension (single dose 0.6 mg fasted) | treatment-related AE: Myalgia (single dose 0.6 mg fasted) | treatment-related AE: Nervous system disorders (single dose 0.6 mg fasted) | treatment-related AE: Oropharyngeal pain (single dose 0.6 mg fasted) | treatment-related AE: Pyrexia (single dose 0.6 mg fasted) | treatment-related AE: Vascular disorder (single dose 0.6 mg fasted) | vital signs: Respiratory rate (brpm) Grade 2 (single dose 0.6 mg fasted) | vital signs: SaO2 (%) 90% to <95% (single dose 0.6 mg fasted) | vital signs: Standing DBP (mmHg) Grade 1 (single dose 0.6 mg fasted) | vital signs: Standing DBP (mmHg) Grade 2 (single dose 0.6 mg fasted) | vital signs: Standing DBP (mmHg) Grade 3 (single dose 0.6 mg fasted) | vital signs: Standing DBP (mmHg) Low (single dose 0.6 mg fasted) | vital signs: Standing SBP (mmHg) Low (single dose 0.6 mg fasted) | vital signs: Standing pulse (bpm) High (single dose 0.6 mg fasted) | vital signs: Standing pulse (bpm) Low (single dose 0.6 mg fasted) | vital signs: Supine DBP (mmHg) Grade 1 (single dose 0.6 mg fasted) | vital signs: Supine SBP (mmHg) Grade 2 (single dose 0.6 mg fasted) | vital signs: Supine SBP (mmHg) Low (single dose 0.6 mg fasted) | ↑ AST Grade 3 (laboratory abnormality) (single dose 0.6 mg fasted) | ↑ Amylase Grade 2 (laboratory abnormality) (single dose 0.6 mg fasted) | ↑ Cholesterol Grade 2 (laboratory abnormality) (single dose 0.6 mg fasted) | ↑ Creatine kinase Grade 4 (laboratory abnormality) (single dose 0.6 mg fasted) | ↑ LDL cholesterol Grade 3 (laboratory abnormality) (single dose 0.6 mg fasted) | ↑ Lipase Grade 2 (laboratory abnormality) (single dose 0.6 mg fasted) | ↑ Pancreatic amylase Grade 2 (laboratory abnormality) (single dose 0.6 mg fasted) | ↑ Potassium Grade 2 (laboratory abnormality) (single dose 0.6 mg fasted) | ↑ Triglycerides Grade 2 (laboratory abnormality) (single dose 0.6 mg fasted) | ↑ Triglycerides Grade 3 (laboratory abnormality) (single dose 0.6 mg fasted) | ↓ Bicarbonate Grade 2 (laboratory abnormality) (single dose 0.6 mg fasted) | ↓ GFR Grade 2 (laboratory abnormality) (single dose 0.6 mg fasted) | ↓ Lymphocytes Grade 2 (laboratory abnormality) (single dose 0.6 mg fasted) | ↓ Lymphocytes Grade 4 (laboratory abnormality) (single dose 0.6 mg fasted) | ↓ Neutrophils Grade 2 (laboratory abnormality) (single dose 0.6 mg fasted) | ↓ Phosphate Grade 2 (laboratory abnormality) (single dose 0.6 mg fasted) | Chills Grade 1 (treatment-emergent AE) (single dose 1.25 mg fasted) | Contact dermatitis Grade 1 (treatment-emergent AE) (single dose 1.25 mg fasted) | Dizziness Grade 1 (treatment-emergent AE) (single dose 1.25 mg fasted) | ECG actual value: Heart rate (bpm) Low (single dose 1.25 mg fasted) | Headache Grade 2 (treatment-emergent AE) (single dose 1.25 mg fasted) | Hypertension Grade 1 (treatment-emergent AE) (single dose 1.25 mg fasted) | Hypertension Grade 2 (treatment-emergent AE) (single dose 1.25 mg fasted) | lab toxicity: Amylase (U/L), upwards, Grade 2 (single dose 1.25 mg fasted) | lab toxicity: Cholesterol (mmol/L), upwards, Grade 2 (single dose 1.25 mg fasted) | lab toxicity: Creatine kinase (U/L), upwards, Grade 1 (single dose 1.25 mg fasted) | lab toxicity: Creatine kinase (U/L), upwards, Grade 2 (single dose 1.25 mg fasted) | lab toxicity: Creatine kinase (U/L), upwards, Grade 4 (single dose 1.25 mg fasted) | lab toxicity: LDL cholesterol (mmol/L, calculated), upwards, Grade 1 (single dose 1.25 mg fasted) | lab toxicity: LDL cholesterol (mmol/L, calculated), upwards, Grade 2 (single dose 1.25 mg fasted) | lab toxicity: Lymphocytes (giga/L), downwards, Grade 4 (single dose 1.25 mg fasted) | lab toxicity: Neutrophils, segmented (giga/L), downwards, Grade 2 (single dose 1.25 mg fasted) | lab toxicity: Triglycerides (mmol/L), upwards, Grade 3 (single dose 1.25 mg fasted) | lab toxicity: Urate (μmol/L), upwards, Grade 1 (single dose 1.25 mg fasted) | subjects with at least one AE for which any study drug or study was temporarily stopped (single dose 1.25 mg fasted) | subjects with at least one AE very likely related to any study drug (single dose 1.25 mg fasted)
